Data on five compounds can be found in ChEMBL document CHEMBL1201862, “PubChem BioAssay data set” (2004).

Activity calls are given as the source filed them.

In assay [1] the target is T1, Protein RecA (Mycobacterium tuberculosis, UniProt P9WHJ3).
T1 sequence (P9WHJ3 whole entry): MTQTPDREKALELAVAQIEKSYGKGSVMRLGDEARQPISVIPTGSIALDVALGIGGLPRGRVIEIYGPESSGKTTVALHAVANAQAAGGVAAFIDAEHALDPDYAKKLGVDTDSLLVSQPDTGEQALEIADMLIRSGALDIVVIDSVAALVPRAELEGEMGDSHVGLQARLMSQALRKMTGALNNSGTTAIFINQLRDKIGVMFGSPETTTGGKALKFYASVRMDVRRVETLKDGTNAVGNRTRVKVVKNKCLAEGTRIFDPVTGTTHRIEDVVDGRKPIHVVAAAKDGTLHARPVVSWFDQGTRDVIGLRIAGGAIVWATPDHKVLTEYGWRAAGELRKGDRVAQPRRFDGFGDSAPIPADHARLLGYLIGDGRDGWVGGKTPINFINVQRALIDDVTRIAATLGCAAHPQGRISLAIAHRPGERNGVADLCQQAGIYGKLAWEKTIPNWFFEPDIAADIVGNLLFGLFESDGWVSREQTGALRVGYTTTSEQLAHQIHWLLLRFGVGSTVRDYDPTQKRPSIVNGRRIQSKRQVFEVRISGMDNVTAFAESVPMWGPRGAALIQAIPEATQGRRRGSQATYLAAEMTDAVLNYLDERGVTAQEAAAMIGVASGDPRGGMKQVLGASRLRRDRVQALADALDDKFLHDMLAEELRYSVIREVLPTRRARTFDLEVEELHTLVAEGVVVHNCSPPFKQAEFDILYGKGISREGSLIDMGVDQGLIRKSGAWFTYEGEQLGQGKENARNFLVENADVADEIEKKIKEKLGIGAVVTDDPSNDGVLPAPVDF
The assay can be described thus: Fluorescence Cell-Free Homogeneous Dose Retest to Identify Inhibitors of RecA-Intein Splicing Activity. [Related pubchem assays (depositor defined):AID2097, AID2223, AID489010, AID492950]. It counts as functional.

The target of assay [2] is T2, Heat shock factor protein 1 (Mus musculus, UniProt P38532).
T2 sequence (P38532 whole entry): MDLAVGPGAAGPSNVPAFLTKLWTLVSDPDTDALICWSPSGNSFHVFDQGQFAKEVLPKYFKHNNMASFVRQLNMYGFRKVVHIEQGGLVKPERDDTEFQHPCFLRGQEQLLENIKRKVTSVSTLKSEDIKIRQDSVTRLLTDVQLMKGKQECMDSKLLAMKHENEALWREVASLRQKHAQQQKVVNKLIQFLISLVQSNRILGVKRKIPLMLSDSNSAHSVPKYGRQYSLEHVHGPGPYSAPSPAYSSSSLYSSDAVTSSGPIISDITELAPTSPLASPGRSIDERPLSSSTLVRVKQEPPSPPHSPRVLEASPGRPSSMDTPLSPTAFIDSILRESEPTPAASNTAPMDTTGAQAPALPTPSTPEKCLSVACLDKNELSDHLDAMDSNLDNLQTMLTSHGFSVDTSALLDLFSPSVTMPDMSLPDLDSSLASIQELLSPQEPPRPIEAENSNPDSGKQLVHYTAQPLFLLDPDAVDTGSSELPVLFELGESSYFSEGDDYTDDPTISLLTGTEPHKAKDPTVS
The assay is described as follows: enhancement of HSF1-driven luciferase signal – cell-based, NIH3T3, luminescence, dose retest, confirmation (AID 435004).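 Note: stress induced by proteasome inhibitor MG132 added 30 min after compound; luciferase reporter driven by HSF1 response element in NIH3T3 cells; actives raise luminescence as potentiators of the MG132 stress response.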 It counts as functional.

For assay [3], the target named is Apelin receptor (Homo sapiens, UniProt P35414). The assay can be described thus: apelin receptor antagonists, arrestin read-out – cell-based, luminescent, enzyme-fragment complementation, selectivity assay for CCR6 antagonist project, SAR follow-up (AID 588359). It is filed as functional.
Apelin receptor, sequence (P35414 whole entry, the tested form may be a part): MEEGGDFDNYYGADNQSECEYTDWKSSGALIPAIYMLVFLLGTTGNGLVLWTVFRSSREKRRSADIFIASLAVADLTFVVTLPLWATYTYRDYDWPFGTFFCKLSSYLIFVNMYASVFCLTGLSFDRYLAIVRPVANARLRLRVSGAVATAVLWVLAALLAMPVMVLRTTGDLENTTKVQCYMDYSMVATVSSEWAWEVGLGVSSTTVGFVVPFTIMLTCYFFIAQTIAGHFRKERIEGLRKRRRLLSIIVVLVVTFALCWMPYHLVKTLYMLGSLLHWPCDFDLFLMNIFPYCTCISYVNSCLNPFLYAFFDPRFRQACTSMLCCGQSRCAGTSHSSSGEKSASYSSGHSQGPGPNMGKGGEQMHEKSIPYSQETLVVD
Assay [4] concerns the target C-X-C chemokine receptor type 5 (Homo sapiens, UniProt P32302). The assay is described as follows: inhibition of CXCL13-driven CXCR5 beta-arrestin recruitment – cell-based, luminescence, CHO-K1 PathHunter, selectivity assay for CCR6 antagonist project, SAR follow-up (AID 540340). It counts as functional.
Assay [5] is described as follows: Trypanosoma cruzi growth suppression in host cells – NIH3T3 host cells, beta-gal luminescence, confirmation (AID 2044).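 Note: intracellular parasites grown in NIH/3T3 mouse fibroblasts as host cells; luminescent beta-galactosidase reporter signal from transgenic T. cruzi replicating inside host cells; inhibitors lower the luminescence signal.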 It counts as functional, cell-based.
The nature of assay [6]: NIH3T3 cell viability loss – ATP luminescence, mouse fibroblasts, counter-screen, dose response (AID 2010).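 Note: cells exposed to compound for about 90 hours before reading.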 It is filed as functional, cell-based. On the technique in general: Counterscreens check selectivity or assay interference.
Assay [7] has as its target T3, Replicative DNA helicase DnaB (Mycobacterium tuberculosis, UniProt P9WMR3).
T3 sequence (P9WMR3 whole entry): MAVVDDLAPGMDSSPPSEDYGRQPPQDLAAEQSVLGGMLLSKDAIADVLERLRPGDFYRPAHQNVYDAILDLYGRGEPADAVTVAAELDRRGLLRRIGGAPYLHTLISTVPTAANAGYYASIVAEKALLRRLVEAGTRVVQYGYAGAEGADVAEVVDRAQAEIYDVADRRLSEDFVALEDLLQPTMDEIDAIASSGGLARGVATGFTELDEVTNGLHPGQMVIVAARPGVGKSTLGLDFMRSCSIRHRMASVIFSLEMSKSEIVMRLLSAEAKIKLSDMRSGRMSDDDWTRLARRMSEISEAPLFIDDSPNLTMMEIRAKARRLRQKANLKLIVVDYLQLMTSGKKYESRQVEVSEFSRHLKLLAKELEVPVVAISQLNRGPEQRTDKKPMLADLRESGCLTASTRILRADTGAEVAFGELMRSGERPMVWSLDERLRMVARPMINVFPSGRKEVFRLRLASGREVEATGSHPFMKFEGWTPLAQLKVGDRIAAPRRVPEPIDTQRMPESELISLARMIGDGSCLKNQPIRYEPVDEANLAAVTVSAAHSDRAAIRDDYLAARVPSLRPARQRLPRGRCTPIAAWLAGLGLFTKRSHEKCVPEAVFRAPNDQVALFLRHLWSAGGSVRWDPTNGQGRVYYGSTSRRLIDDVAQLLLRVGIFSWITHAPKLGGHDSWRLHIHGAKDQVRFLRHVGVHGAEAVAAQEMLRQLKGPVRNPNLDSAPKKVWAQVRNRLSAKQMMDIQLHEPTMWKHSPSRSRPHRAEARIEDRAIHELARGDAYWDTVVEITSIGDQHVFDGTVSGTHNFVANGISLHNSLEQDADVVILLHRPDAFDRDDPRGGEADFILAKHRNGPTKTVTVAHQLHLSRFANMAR
The assay is described as follows: DnaB intein splicing inhibitors, dose response, biochemical, cell-free fluorescence (AID 449749). It is filed as functional.

A short description of assay [8]: cells.
Assay [9] deals with C-C chemokine receptor type 6 (Homo sapiens, UniProt P51684). The assay can be described thus: analog antagonism of CCR6 beta-arrestin signaling – cell-based, luminescent beta-arrestin readout, SAR follow-up (AID 540334). It counts as functional.
C-C chemokine receptor type 6, sequence (P51684 whole entry): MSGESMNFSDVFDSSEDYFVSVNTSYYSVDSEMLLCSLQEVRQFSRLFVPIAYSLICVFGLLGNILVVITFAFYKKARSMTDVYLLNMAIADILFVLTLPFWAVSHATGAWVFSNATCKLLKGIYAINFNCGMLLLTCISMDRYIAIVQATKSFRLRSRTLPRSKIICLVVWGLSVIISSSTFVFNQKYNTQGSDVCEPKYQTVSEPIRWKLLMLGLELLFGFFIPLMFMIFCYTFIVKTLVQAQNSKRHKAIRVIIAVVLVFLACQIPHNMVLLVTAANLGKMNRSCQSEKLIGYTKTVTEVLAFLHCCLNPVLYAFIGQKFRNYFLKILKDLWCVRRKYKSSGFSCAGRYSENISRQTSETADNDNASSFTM
The target of assay [10] is Protein disulfide-isomerase (Homo sapiens, UniProt P07237). The assay can be described thus: inhibition of PDI-driven insulin aggregation – biochemical, turbidity, absorbance, cherry-picked samples, dose response (AID 602350). It counts as functional.
Protein disulfide-isomerase, sequence (P07237 whole entry): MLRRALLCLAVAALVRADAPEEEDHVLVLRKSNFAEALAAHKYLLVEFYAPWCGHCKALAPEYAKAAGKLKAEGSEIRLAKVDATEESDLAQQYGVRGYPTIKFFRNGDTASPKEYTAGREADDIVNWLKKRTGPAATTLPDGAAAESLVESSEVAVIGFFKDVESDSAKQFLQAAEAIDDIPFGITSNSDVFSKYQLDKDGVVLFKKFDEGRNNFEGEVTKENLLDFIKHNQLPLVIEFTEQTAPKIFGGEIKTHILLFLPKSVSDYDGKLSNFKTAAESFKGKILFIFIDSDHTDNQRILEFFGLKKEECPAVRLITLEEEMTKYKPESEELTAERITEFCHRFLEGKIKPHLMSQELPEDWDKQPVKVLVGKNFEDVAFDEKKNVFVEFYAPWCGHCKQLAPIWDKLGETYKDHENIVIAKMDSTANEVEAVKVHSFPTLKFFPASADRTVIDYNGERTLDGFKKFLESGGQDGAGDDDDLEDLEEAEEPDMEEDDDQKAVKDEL
Assay [11] addresses T4, High affinity choline transporter 1 (Homo sapiens, UniProt Q9GZV3).
T4 sequence (Q9GZV3 whole entry): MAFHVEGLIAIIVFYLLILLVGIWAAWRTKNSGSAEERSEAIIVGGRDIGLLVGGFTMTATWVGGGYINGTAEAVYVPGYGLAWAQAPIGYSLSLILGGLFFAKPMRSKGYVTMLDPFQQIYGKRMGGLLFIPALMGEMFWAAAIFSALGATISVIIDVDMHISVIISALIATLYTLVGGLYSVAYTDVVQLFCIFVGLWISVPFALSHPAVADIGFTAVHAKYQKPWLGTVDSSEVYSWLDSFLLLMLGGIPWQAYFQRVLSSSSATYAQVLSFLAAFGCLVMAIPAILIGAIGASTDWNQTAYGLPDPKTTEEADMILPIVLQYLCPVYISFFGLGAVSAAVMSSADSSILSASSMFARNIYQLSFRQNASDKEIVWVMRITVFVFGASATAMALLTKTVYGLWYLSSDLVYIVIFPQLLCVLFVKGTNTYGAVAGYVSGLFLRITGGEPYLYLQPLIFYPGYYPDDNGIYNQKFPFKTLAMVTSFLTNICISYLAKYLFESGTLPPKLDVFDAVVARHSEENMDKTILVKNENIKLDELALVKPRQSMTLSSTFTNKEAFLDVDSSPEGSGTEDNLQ
The assay is described as follows: human choline transporter potentiators, potency – cell-based, 10-point CRC, membrane potential dye, dose response (AID 602376). It counts as functional.

Assay [12] deals with Mitogen-activated protein kinase 13 (Homo sapiens, UniProt O15264). It is filed as functional.
Mitogen-activated protein kinase 13, sequence (O15264 whole entry): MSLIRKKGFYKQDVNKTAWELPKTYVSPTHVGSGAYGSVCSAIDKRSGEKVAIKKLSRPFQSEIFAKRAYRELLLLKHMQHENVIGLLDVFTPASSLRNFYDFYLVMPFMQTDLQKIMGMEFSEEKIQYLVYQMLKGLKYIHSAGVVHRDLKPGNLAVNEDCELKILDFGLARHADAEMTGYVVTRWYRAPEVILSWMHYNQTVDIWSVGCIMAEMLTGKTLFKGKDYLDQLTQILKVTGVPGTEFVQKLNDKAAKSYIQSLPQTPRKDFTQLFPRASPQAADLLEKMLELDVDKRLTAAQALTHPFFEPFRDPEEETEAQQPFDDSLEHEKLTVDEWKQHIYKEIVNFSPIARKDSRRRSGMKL
Assay [13] deals with Aurora kinase A (Homo sapiens, UniProt O14965). It counts as functional.
Aurora kinase A, sequence (O14965 whole entry): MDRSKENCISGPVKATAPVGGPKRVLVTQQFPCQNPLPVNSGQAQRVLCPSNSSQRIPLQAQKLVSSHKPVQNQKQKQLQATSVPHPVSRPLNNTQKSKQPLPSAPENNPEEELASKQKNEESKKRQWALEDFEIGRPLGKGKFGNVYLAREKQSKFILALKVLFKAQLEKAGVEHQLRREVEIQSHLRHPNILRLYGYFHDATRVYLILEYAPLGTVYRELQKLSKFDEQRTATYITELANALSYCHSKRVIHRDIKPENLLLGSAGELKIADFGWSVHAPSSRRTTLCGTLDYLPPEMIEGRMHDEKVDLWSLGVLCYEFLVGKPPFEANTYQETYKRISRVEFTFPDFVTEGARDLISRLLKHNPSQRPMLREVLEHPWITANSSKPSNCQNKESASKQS
In assay [14] the target is Ribosomal protein S6 kinase alpha-3 (Homo sapiens, UniProt P51812). It is filed as functional.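 Note: measured within a kinome-wide profiling panel.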
Ribosomal protein S6 kinase alpha-3, sequence (P51812 whole entry): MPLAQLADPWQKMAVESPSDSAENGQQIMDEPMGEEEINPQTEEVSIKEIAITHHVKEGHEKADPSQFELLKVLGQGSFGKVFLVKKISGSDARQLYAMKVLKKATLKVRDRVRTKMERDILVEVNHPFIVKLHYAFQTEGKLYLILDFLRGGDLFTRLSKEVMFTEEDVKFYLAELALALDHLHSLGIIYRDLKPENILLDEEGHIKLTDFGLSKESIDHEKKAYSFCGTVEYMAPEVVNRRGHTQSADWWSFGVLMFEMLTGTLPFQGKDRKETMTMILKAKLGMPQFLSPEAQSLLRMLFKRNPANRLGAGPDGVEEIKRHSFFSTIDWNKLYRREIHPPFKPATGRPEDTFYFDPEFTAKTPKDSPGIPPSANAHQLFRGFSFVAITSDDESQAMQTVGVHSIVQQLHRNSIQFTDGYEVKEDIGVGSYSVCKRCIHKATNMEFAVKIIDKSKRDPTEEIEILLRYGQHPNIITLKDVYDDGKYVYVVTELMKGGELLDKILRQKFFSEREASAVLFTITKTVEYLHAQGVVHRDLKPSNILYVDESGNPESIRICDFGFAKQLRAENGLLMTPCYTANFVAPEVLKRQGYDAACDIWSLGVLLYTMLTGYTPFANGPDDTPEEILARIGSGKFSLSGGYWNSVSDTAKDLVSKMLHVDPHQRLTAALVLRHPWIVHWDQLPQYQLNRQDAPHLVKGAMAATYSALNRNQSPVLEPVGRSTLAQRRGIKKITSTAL
Assay [15] has as its target Serine/threonine-protein kinase Chk1 (Homo sapiens, UniProt O14757). It is filed as functional.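 Note: measured as one member of a kinome-wide kinase profiling panel.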
Assay [16] has as its target Serine/threonine-protein kinase Chk2 (Homo sapiens, UniProt O96017). It counts as functional.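 Note: CHEK2 entry within a kinome-wide screening panel.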
The target of assay [17] is Protein kinase C delta type (Homo sapiens, UniProt Q05655). It is filed as functional.
Protein kinase C delta type, sequence (Q05655 whole entry): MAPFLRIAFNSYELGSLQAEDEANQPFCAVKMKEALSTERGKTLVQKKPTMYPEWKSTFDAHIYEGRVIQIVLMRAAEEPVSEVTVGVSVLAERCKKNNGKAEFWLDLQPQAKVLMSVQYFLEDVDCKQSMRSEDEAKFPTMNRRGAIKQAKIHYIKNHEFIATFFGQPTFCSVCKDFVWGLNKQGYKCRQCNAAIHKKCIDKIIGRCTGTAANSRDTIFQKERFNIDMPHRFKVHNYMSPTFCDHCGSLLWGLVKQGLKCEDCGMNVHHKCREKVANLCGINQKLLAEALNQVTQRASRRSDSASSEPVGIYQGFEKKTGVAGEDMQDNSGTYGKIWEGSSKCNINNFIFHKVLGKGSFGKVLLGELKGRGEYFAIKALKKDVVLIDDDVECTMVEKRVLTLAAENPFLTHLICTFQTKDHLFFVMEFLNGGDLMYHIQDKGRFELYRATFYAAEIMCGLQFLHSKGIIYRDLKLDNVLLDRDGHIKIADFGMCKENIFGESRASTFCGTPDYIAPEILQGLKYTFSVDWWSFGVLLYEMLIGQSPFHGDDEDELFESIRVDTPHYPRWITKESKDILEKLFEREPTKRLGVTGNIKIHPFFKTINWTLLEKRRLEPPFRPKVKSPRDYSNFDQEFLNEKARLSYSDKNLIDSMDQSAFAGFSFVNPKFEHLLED
Assay [18] concerns the target MAP/microtubule affinity-regulating kinase 3 (Homo sapiens, UniProt P27448). It is filed as functional.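 Note: MARK3 affinity measured as one member of a kinome panel.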
Assay [19] has as its target cAMP-dependent protein kinase catalytic subunit alpha (Homo sapiens, UniProt P17612). It is filed as functional.

MAP/microtubule affinity-regulating kinase 3, sequence (P27448 whole entry): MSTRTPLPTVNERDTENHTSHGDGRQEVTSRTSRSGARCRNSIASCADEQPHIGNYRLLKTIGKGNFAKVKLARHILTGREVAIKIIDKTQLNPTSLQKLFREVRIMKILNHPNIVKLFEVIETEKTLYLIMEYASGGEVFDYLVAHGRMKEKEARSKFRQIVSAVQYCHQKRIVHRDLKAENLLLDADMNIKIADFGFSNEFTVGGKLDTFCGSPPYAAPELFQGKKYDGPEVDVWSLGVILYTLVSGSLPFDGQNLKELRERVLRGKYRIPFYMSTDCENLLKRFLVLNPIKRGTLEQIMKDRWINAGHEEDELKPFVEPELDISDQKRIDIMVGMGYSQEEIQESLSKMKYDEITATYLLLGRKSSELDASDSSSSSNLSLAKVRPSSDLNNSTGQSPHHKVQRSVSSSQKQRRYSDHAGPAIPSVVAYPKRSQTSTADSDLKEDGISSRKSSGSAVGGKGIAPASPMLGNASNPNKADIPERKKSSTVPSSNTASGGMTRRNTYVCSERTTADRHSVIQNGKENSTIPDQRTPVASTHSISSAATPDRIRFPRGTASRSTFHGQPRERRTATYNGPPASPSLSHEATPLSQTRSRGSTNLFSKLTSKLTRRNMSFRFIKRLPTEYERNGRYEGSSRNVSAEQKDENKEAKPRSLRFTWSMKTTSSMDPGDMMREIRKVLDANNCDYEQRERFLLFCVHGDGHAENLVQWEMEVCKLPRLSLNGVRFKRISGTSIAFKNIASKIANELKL
Serine/threonine-protein kinase Chk2, sequence (O96017 whole entry): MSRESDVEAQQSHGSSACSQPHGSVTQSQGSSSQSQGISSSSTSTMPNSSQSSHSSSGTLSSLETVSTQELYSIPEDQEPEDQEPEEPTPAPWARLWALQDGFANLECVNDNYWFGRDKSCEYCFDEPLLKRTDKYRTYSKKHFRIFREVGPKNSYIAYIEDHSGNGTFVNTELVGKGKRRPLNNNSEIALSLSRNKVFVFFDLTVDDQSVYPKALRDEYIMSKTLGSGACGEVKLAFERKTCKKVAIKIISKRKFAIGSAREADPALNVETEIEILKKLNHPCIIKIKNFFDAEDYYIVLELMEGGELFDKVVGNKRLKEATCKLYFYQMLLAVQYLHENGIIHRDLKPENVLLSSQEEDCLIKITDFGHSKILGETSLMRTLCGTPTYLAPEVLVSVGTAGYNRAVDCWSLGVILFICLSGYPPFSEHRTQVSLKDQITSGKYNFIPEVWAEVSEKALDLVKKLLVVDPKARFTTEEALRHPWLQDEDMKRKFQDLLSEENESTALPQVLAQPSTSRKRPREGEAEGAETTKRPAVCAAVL

By EC50 is commonly meant the midpoint of the concentration-response curve. By IC50 is commonly meant the concentration that gives 50% inhibition. One may read the AC50 as the concentration at which the activity in the assay is half-maximal. Take `CN1CCc2nc(SCc3ccc(Cl)cc3)c(C#N)c(-c3cccs3)c2C1`: the EC50 is 4.41 µM (active) in assay [1]; 10.1 µM (active) in [2]; < 0.1 µM (active) in [5]; > 60 µM (not active) in assay [6]; 0.014 µM (active) in [8]. For the same compound, the IC50 is > 66.6 µM (inactive) in assay [3], 26.3 µM (inactive) in assay [4] and > 66.6 µM (inactive) in [9]. Also, the AC50 in [7] is > 380 µM (inactive).

Turning to `O=S(=O)(c1ccccc1)N1N=C(c2ccc(O)cc2)CC1c1ccco1` (centres undefined), in [10], the AC50 is 19.5 µM (active).

For the compound `CC(c1ccccc1)N(CCC(c1ccccc1)C1CCOC(C)(C)C1)C(=O)c1ccco1` (centres undefined), the EC50 in assay [11] was 5.67 µM (active).

As a reminder, the Ki is a measure of affinity in units of concentration, obtained from inhibition or displacement. For `O=C(Nc1cnccn1)Nc1ccnc2c(F)cccc12`, in assay [12], the Ki was > 7.94 µM (inactive).

On to `CN(C)c1ncnc2nc[nH]c12` [DIMETHYLADENINE], for which the inhibition constant (Ki) in assay [13] is 3.98 µM (active); in assay [14], 5.01 µM (active); in assay [15], 12.6 µM (active); in [16], 3.98 µM (active); in [17] it was 12.6 µM (active); in [18] it was 5.01 µM (active). Further, the Ki in [19] is 15.8 µM (active).
